Experimental data as given in BindingDB's records for doi:10.1046/j.1471-4159.1998.71062558.x (F. Hoffmann-La Roche, 1998).

Biological target: Metabotropic glutamate receptor 2 (Homo sapiens, UniProt Q14416)
Sequence (Q14416 whole entry): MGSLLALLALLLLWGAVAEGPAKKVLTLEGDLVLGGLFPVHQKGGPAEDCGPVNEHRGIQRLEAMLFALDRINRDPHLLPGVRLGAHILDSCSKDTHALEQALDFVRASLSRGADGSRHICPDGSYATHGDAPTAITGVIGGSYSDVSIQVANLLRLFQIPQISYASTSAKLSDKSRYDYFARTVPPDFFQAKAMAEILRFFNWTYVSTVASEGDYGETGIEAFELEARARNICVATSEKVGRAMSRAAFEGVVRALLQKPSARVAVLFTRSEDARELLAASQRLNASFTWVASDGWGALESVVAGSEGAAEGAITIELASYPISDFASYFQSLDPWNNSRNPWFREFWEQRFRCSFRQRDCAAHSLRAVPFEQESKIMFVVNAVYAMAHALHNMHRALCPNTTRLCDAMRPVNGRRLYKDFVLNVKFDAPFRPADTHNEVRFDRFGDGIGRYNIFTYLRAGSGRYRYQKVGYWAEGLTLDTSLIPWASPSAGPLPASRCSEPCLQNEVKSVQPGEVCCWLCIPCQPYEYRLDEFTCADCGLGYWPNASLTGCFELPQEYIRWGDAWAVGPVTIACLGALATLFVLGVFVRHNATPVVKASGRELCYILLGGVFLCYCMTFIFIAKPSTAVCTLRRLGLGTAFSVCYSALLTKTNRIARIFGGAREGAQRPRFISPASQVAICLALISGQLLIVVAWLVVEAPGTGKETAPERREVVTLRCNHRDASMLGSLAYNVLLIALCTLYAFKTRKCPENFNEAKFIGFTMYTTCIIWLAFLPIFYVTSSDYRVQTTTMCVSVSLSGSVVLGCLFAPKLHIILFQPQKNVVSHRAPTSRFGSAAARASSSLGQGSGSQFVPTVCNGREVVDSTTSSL

Row | SMILES | Ki
1 | N[C@@H](CCP(=O)(O)O)C(=O)O | 680 nM
2 | CCC(N)(CCC(=O)O)C(=O)O (stereo unspecified) [CAS_5311079] | 376 nM
3 | NC(Cn1cnc2c(=O)[nH]c(=O)[nH]c21)(C(=O)O)C1CC1C(=O)O (stereo unspecified) [CAS_5311260] | 0.078 nM
4 | C[C@](N)(C(=O)O)C1C[C@@H]1C(=O)O (stereo partly specified) [MCCG-I] | 69 nM
5 | N[C@H](C(=O)O)[C@H]1C[C@H]1C(=O)O [L-CCG-IV] | 0.378 nM
6 | C[C@@](N)(C(=O)O)c1ccc(C(=O)O)cc1 (racemic) | 334 nM
7 | CC(N)(C(=O)O)c1ccc(P(=O)(O)O)cc1 (stereo unspecified) | 260 nM
8 | N[C@H](CP(=O)(O)O)C(=O)O [CAS_23052-80-4] | 263 nM
9 | N[C@@H](Cn1oc(=O)[nH]c1=O)C(=O)O [2-amino-3-(3,5-dioxo[1,2,4]oxadiazolidin-2-yl)propionic acid] | 178 nM
10 | N[C@H](C(=O)O)C1[C@@H](C(=O)O)[C@@H]1C(=O)O (stereo partly specified) [DCG-IV] | 0.368 nM
11 | N[C@@]1(C(=O)O)CC[C@H](C(=O)O)C1 [1S, 3R-ACPD] | 9.33 nM
